The values that follow come from ChEMBL document CHEMBL1201862, “PubChem BioAssay data set” (2004).

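Compound exposure: 48 hours, 5 concentrations, 96-well plates. Abbreviation: GI50, concentration required for 50% inhibition of growth.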 Active and inactive are the calls of the source. No stated cut-off is given here; in the data, active = GI50 up to about 1.1 µM and inactive = higher.

Some test systems named below: 786-0; CAKI-1; CCRF-CEM; DU-145; HCC 2998; KM12; LOX IMVI; MDA-MB-435; Malme-3M; NCI-H23; SF-268; SF-295; SK-MEL-28; SNB-19; SNB-75; SW-620; T47D; U-251; BT-549.
What all share (assay): inhibition of tumour cell growth, NCI panel, 48 h

In the case of `O=C(Nc1ccccc1)OCCN=C1c2ccccc2C(Br)C(Br)c2ccccc21` (stereo not drawn), the GI50 is 2.82 µM (inactive) with 786-0; 6.49 µM (inactive) with CAKI-1; 1.49 µM (inactive) with CCRF-CEM; 9.16 µM (inactive) with DU-145; 14.8 µM (inactive) with HCC 2998; 13.2 µM (inactive) with KM12. Also, the GI50 with LOX IMVI is 5.08 µM (inactive); with MDA-MB-435 it was 7.93 µM (inactive); in the test with Malme-3M, 6.15 µM (inactive); in the test on NCI-H23, 10.4 µM (inactive); in the test with SF-268, 10.5 µM (inactive); with SF-295, 17.1 µM (inactive). Moreover, the GI50 with SK-MEL-28 is 9.06 µM (inactive); in the test on SNB-19 it was 14.9 µM (inactive); in the test on SNB-75 it was 13.3 µM (inactive); with SW-620, 4.43 µM (inactive); with T47D, 8.69 µM (inactive); in the test on U-251, 8.45 µM (inactive).

Turning to `Cc1ccc(S(=O)(=O)n2c3c(c4ccccc42)CCN2C[C@H]([C@H](C)Br)CC[C@@H]32)cc1`, the GI50 in the test with 786-0 was > 100 µM (inactive); in the test with CAKI-1, > 100 µM (inactive); in the test on CCRF-CEM, 86.7 µM (inactive); in the test on DU-145, > 100 µM (inactive); in the test with HCC 2998, 82.8 µM (inactive); in the test on KM12, > 100 µM (inactive). Moreover, the GI50 with LOX IMVI was > 100 µM (inactive); with MDA-MB-435 it was 32.1 µM (inactive); in the test with Malme-3M, > 100 µM (inactive); in the test with NCI-H23, > 100 µM (inactive); in the test on SF-268, > 100 µM (inactive); with SF-295 it was > 100 µM (inactive). For the same molecule, the GI50 with SK-MEL-28, in the test with SNB-19, in the test with SNB-75, with SW-620, in the test on T47D and with U-251 was > 100 µM (inactive) in each case.

Consider `O=C1CC2(CCCc3sccc32)C(=O)N1` (stereo not drawn), for which the GI50 with 786-0, with CAKI-1, with CCRF-CEM, in the test on DU-145, in the test with HCC 2998 and in the test on KM12 was > 100 µM (inactive) in each case. The GI50 in the test with LOX IMVI, in the test on MDA-MB-435, with Malme-3M, in the test on NCI-H23, in the test on SF-268 and with SF-295 was > 100 µM (inactive) each time. In addition, the GI50 in the test on SK-MEL-28, with SNB-19, with SNB-75, with SW-620, with T47D and in the test on U-251 was > 100 µM (inactive) in each case.

Turning to `O=C1C=C(Nc2ccc(S(=O)(=O)Nc3nccs3)cc2)c2ccccc2C1=O`, the GI50 in the test with 786-0 is 36.6 µM (inactive); in the test with BT-549 it was 20.7 µM (inactive); with CAKI-1, 26.8 µM (inactive); with CCRF-CEM it was 15.2 µM (inactive); with HCC 2998 it was 22.2 µM (inactive); in the test on KM12, 17.8 µM (inactive). Besides, the GI50 is 19.8 µM (inactive) with LOX IMVI; 17.7 µM (inactive) in the test with MDA-MB-435; 21 µM (inactive) in the test on Malme-3M; 35.6 µM (inactive) in the test with NCI-H23; 27.1 µM (inactive) with SF-268; 18 µM (inactive) with SF-295. In addition, the GI50 in the test with SK-MEL-28 is 16.5 µM (inactive); in the test on SNB-19, 29.4 µM (inactive); in the test with SNB-75, 21.5 µM (inactive); in the test with SW-620, 19.4 µM (inactive); in the test on T47D it was 69.5 µM (inactive); with U-251, 21.6 µM (inactive).

For the molecule `CC(=O)OC1C(COC(=O)c2ccccc2)OC(Nc2ncc(-c3ccc(Br)cc3)s2)C(OC(=O)c2ccccc2)C1OC(=O)c1ccccc1` (stereo not drawn), the GI50 in the test with 786-0 is 84.1 µM (inactive); in the test on BT-549, > 100 µM (inactive); in the test on DU-145 it was > 100 µM (inactive); with LOX IMVI, > 100 µM (inactive); with MDA-MB-435 it was > 100 µM (inactive); in the test on Malme-3M it was > 100 µM (inactive). The GI50 with NCI-H23, with SF-268, with SF-295, with SK-MEL-28, in the test on SNB-19 and with SNB-75 was > 100 µM (inactive) in each case. Besides, the GI50 with SW-620, with T47D and in the test on U-251 was > 100 µM (inactive) in each case.

Turning to `CCNc1nc(N)c(C(=O)c2ccc(Cl)cc2)s1`, the GI50 with 786-0 is 39.9 µM (inactive); with BT-549 it was 40.3 µM (inactive); with CCRF-CEM it was 5.75 µM (inactive); with DU-145, 32.7 µM (inactive); in the test with KM12 it was 30.3 µM (inactive); in the test on LOX IMVI, 40.1 µM (inactive). For the same molecule, the GI50 in the test with MDA-MB-435 is 32.2 µM (inactive); in the test on Malme-3M, > 100 µM (inactive); in the test on NCI-H23 it was 45.6 µM (inactive); in the test with SF-268 it was 30.7 µM (inactive); with SK-MEL-28 it was 76.6 µM (inactive); with SNB-19, 18.9 µM (inactive). For the same molecule, the GI50 is 31.2 µM (inactive) with SW-620, 33 µM (inactive) with T47D and 36.7 µM (inactive) with U-251.

`O=C1C(Cl)=C(OCCCCl)C(=O)c2c(O)ccc(O)c21`: the GI50 in the test on 786-0 is 2.04 µM (inactive); in the test with BT-549, 1.92 µM (inactive); with CAKI-1 it was 1.21 µM (inactive); with CCRF-CEM, 0.0316 µM (active); in the test with DU-145, 9.73 µM (inactive); with HCC 2998, 14.8 µM (inactive). The GI50 in the test on KM12 was 13.1 µM (inactive); in the test with LOX IMVI it was 1.76 µM (inactive); with Malme-3M, 1.74 µM (inactive); in the test with NCI-H23 it was 2.19 µM (inactive); in the test on SF-268, 3.08 µM (inactive); in the test with SF-295 it was 6.17 µM (inactive). For the same molecule, the GI50 is 2.08 µM (inactive) in the test on SK-MEL-28; 18.3 µM (inactive) in the test with SNB-19; 2 µM (inactive) with SNB-75; 1.35 µM (inactive) in the test on SW-620; 2.34 µM (inactive) in the test on T47D; 5.9 µM (inactive) in the test on U-251.

For the molecule `OC1CCCCCCCCCCC1SCCCCl` (stereo not drawn), the GI50 with 786-0, in the test on CAKI-1, with DU-145, in the test with HCC 2998, with KM12 and in the test with LOX IMVI was > 100 µM (inactive) throughout. Also, the GI50 with MDA-MB-435 is > 100 µM (inactive); in the test with Malme-3M it was 81.8 µM (inactive); in the test on NCI-H23 it was > 100 µM (inactive); with SF-268 it was > 100 µM (inactive); in the test on SF-295, > 100 µM (inactive); with SK-MEL-28, > 100 µM (inactive). For the same molecule, the GI50 with SNB-19, in the test with SW-620, in the test with T47D and with U-251 was > 100 µM (inactive) in each case.

For `Cn1c(COC(=O)NC2CCCCC2)c(COC(=O)NC2CCCCC2)c2ccc3ccccc3c21`, the GI50 in the test with 786-0 was 13.3 µM (inactive); with BT-549, 55.3 µM (inactive); in the test on CAKI-1 it was 11 µM (inactive); with CCRF-CEM, 9.77 µM (inactive); in the test with KM12, 30 µM (inactive); in the test with LOX IMVI, 23.3 µM (inactive). Moreover, the GI50 in the test on MDA-MB-435 was 14.3 µM (inactive); in the test on Malme-3M, 36.4 µM (inactive); in the test on NCI-H23 it was 21.8 µM (inactive); in the test on SF-268, 22.4 µM (inactive); with SF-295, 41 µM (inactive); with SNB-19, 55.7 µM (inactive). The GI50 was 26.1 µM (inactive) with SNB-75, 32.4 µM (inactive) with SW-620, 50.4 µM (inactive) in the test with T47D and > 100 µM (inactive) in the test with U-251.

As for `CCSc1[nH]c(NC(=S)NC(=O)c2ccccc2Cl)c(C(N)=O)c1C(N)=O`, the GI50 in the test on 786-0, in the test with CAKI-1, in the test with CCRF-CEM, in the test with DU-145, with HCC 2998 and in the test with KM12 was > 10 µM (inactive) throughout. For the same molecule, the GI50 in the test on LOX IMVI, with MDA-MB-435, in the test with Malme-3M, in the test with NCI-H23, in the test with SF-268 and in the test with SF-295 was > 10 µM (inactive) throughout. Besides, the GI50 with SK-MEL-28, in the test on SNB-75, in the test with SW-620 and in the test on T47D was > 10 µM (inactive) each time.

On to `CC1C[C@]2(C)C(=O)N(c3ccccc3)C(=N)[C@@H]2N(C)c2ccccc21` (stereo partly drawn), for which the GI50 with 786-0, in the test with CAKI-1, in the test with CCRF-CEM, with DU-145, with HCC 2998 and with KM12 was > 100 µM (inactive) throughout. Besides, the GI50 with LOX IMVI, with MDA-MB-435, in the test on Malme-3M, with NCI-H23, in the test with SF-268 and in the test on SF-295 was > 100 µM (inactive) throughout. Besides, the GI50 was > 100 µM (inactive) in the test on SK-MEL-28; > 100 µM (inactive) in the test with SNB-19; 79.3 µM (inactive) in the test on SNB-75; > 100 µM (inactive) in the test on SW-620; > 100 µM (inactive) in the test on T47D.

For the molecule `O=C1CCCC[C@H]1C(O)CC1CC(=O)N(c2ccccc2)C(=O)C1` (stereo partly drawn), the GI50 with 786-0, in the test with BT-549, in the test on CAKI-1, with CCRF-CEM, with DU-145 and with HCC 2998 was > 100 µM (inactive) throughout. Besides, the GI50 in the test on KM12, with LOX IMVI, with MDA-MB-435, with Malme-3M, in the test on NCI-H23 and in the test on SF-268 was > 100 µM (inactive) throughout. Moreover, the GI50 in the test on SF-295, with SK-MEL-28, with SNB-19, in the test with SNB-75, in the test on SW-620 and in the test on U-251 was > 100 µM (inactive) each time.
